Experimental data taken from patent US7585891B2, “Pesticidal (dihalopropenyl)phenylalkyl substituted benzodioxolane and benzodioxole derivatives” (FMC Corporation, priority 2003, dated 2009).

Experiments:
tobacco budworm = assay: foliar treated test against tobacco budworm on chick pea plants; type: in vivo, Heliothis virescens; settings: 96 hour exposure, dead plus moribund insects
Experimental: Certain compounds of formula I were tested against tobacco budworm on plant foliage. The foliar treated test against tobacco budworm were conducted in the following manner:
Nine-to-ten day-old chick pea plants (Cicer arietinum) were sprayed at 15 psi to runoff on both upper and lower leaf surfaces with solutions of test compound to provide application rates as high as 1000 ppm of test chemical. The solvent used to prepare the solutions of test compound was 10% acetone or methanol (v/v) and 0.1% of the surfactant octylphenoxypolyethoxyethanol in distilled water. Four replicates, each containing one chick pea plant, for each rate of application of test compound were sprayed. The treated plants were transferred to a hood where they were kept until the spray had dried.
The four chick pea plants for each replicate treated with test compound as described above were removed from their pots by cutting the stems just above the soil line. The excised leaves and stems from the four plants in each replicate were placed in individual 237 mL (8-ounce) paper cups, which contained a moistened filter paper. Five second-instar tobacco budworm (7 days old) were counted into each cup, taking care not to cause injury. An opaque plastic lid was placed on each cup, which was then held in a growth chamber for a 96 hour exposure period at 25° C., 50% relative humidity and photo-period of 12 hours light and 12 hours dark. At the end of the 96 hour exposure period the cups were opened, and the numbers of dead, moribund, and live insects were counted. Using the insect counts, the efficacy of the test compound was expressed in percent control. Percent control is derived from the total number of dead insects (TD) plus the total number of moribund insects (TM) as compared to the total number of insects (TI) in the test:
The condition of the test plants was also observed for phytotoxicity and for reduction of feeding damage as compared to an untreated control.

[1] = system: tobacco budworm (Heliothis virescens [Fabricius]); assay: surface-treated diet test against tobacco budworm; type: in vivo; settings: 0.25 millimolar on the surface of the diet, second instar larvae, five-day exposure; for Percent Growth Inhibition: insect weight relative to untreated controls
Text: The test compounds of formula I are identified by numbers that correspond to those in Table 1.

[2] = 30 ppm foliar spray on chick pea
[3] = 10 ppm foliar spray on chick pea

SMILES	Percent Control (tobacco budworm; [2]) [%]	Percent Growth Inhibition [1] [%]	Percent Control (tobacco budworm; [3]) [%]	Percent Mortality [1] [%]
CC1(C)Cc2cc(Cl)cc(OCCOc3c(Cl)cc(OCC=C(Cl)Cl)cc3Cl)c2O1 [Compound 1]	70			
CC1(C)Oc2cccc(OCCCCOc3c(Cl)cc(OCC=C(Cl)Cl)cc3Cl)c2O1 [Compound 2, 5-(3,3-Dichloroprop-2-enyloxy)-2-[4-(2,2-dimethylbenzo[d]1,3-dioxolan-4-yloxy)butoxy]-1,3-dichlorobenzene]	100	100	85	
CC1(C)Oc2ccc(OCCCCOc3c(Cl)cc(OCC=C(Cl)Cl)cc3Cl)cc2O1 [Compound 4, 5-{4-[4-(3,3-dichloroprop-2-enyloxy)-2,6-dichlorophenoxy]butoxy}-2,2-dimethylbenzo[d]1,3-dioxolane]	100	100	83	
FC1(F)Oc2ccc(OCCCCOc3c(Cl)cc(OCC=C(Cl)Cl)cc3Cl)cc2OC1(F)F [Compound 9, 5-(3,3-Dichloroprop-2-enyloxy)-1,3-dichloro-2-[4-(2,2,3,3-tetrafluorobenzo[3,4-e]1,4-dioxan-6-yloxy)butoxy]benzene]	100	100		100
